Consider 18 compounds from patent US20050004126A1 (priority 2001, published 2005).

Where two headings read alike, the source gives them in different places.

In data set [1] the target is MMP-9FL (full length Gelatinase B) (Homo sapiens, UniProt P14780). The data set is described as follows: Thiopeptolide hydrolysis assay, MMP-9. It is filed as biochemical.
The target of data set [2] is MMP-3CD (catalytic domain of stromelysin) (Homo sapiens, UniProt P08254). The data set is described as follows: Thiopeptolide hydrolysis assay, MMP-3.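 Further: inhibition of thiopeptolide substrate (100 µM) cleavage by the MMP-3 catalytic domain, detected with DTNB at pH 6.0 with CaCl2, hydrolysis compared against runs lacking inhibitor.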 It is filed as biochemical.
The target in data set [3] is T1, MMP-13CD (catalytic domain of collagenase 3) (Homo sapiens, UniProt P45452). Kind of data set: Thiopeptolide hydrolysis assay, MMP-13.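 Further: inhibition of enzymatic thiopeptolide substrate cleavage (100 µM) in pH 6.0 MES buffer with CaCl2 and DTNB, comparing hydrolysis with versus without inhibitor.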
Data set [4] addresses T2, MMP-2FL (full length Gelatinase A) (Homo sapiens, UniProt P08253).
T2 sequence (P08253 110-660): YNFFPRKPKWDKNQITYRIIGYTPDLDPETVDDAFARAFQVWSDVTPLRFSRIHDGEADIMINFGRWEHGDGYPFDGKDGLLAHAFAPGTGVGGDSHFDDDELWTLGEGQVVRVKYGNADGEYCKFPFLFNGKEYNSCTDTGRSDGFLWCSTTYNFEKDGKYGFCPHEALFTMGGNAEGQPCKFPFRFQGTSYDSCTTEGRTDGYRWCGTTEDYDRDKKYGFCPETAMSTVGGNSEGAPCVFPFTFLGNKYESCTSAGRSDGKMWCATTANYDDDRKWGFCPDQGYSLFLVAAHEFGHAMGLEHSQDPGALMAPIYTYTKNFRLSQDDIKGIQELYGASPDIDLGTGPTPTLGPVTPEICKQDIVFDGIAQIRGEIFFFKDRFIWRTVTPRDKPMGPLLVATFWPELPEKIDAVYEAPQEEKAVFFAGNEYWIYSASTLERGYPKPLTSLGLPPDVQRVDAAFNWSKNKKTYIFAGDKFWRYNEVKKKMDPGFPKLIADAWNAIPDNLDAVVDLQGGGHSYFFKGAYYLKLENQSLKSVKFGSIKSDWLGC
The data set is described as follows: Thiopeptolide hydrolysis assay, MMP-2. In kind it is biochemical.

The target in data set [5] is T3, MMP-7FL (full-length matrilysin) (Homo sapiens, UniProt P09237).
T3 sequence (P09237 95-267): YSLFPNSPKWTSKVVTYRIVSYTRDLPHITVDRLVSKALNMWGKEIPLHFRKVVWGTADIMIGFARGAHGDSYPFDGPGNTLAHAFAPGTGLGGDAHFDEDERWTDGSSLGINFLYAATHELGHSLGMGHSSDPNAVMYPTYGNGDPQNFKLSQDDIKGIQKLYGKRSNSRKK
Kind of data set: Thiopeptolide hydrolysis assay, MMP-7. It is filed as biochemical.

Data set [6] deals with MMP-14CD (catalytic domain of membrane type 1 MMP) (Homo sapiens, UniProt P50281). The data set is described as follows: Thiopeptolide hydrolysis assay, MMP-14. In kind it is biochemical.
In a further data set the test system is other MMP enzymes. The settings on record: Chen et al.; cited from earlier work.
For another data set, the target named is MMP-13 (Homo sapiens, UniProt P45452). The settings on record: cited from earlier work.
In data set [7] the target is T4, MMP-1FL (full-length interstitial collagenase) (Homo sapiens, UniProt P03956).
T4 sequence (P03956 100-469): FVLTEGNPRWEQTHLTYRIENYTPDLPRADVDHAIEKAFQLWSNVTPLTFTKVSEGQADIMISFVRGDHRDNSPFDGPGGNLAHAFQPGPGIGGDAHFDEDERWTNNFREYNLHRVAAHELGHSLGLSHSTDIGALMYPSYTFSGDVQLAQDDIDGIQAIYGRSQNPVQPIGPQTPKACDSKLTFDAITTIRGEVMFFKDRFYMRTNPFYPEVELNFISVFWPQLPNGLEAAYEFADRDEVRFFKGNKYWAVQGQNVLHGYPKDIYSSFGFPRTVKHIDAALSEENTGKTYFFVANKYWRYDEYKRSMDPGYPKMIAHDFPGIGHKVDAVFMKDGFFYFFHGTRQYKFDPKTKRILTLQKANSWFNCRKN
Kind of data set: Thiopeptolide hydrolysis assay, MMP-1. It is filed as biochemical.

In data set [8] the target is T1, MMP-13CD (catalytic domain of collagenase 3). The data set is described as follows: biochemical.
The mark [9] stands for this setting: Table 1a, full-length enzyme, read-out: MMP09 (FL) IC50.
Setting [10] is: Table 1a, catalytic domain, read-out: MMP03 (CD) IC50.
The mark [11] stands for this setting: MMP13 (CD) IC50 μM, Table 1a, catalytic domain.
Setting [12] is: Table 1a, full-length enzyme, read-out: MMP02 (FL) IC50.
The mark [13] stands for this setting: Table 1a, full-length enzyme, read-out: MMP07 (FL) IC50.
[14] abbreviates: Table 1a, catalytic domain, read-out: MMP14 (CD) IC50.
Setting [15] is: Table 1a, full-length enzyme, read-out: MMLP01 (FL) IC50.
[16] abbreviates: Table VI, synthesis examples, read-out: MMP01.
The mark [17] stands for this setting: Table VI, synthesis examples, read-out: MMP09.
Setting [18] is: Table VI, synthesis examples, read-out: MMP02.
[19] abbreviates: Table VI, synthesis examples, read-out: MMP07.
Where [20] appears, read: Table VI, synthesis examples, read-out: MMP014.

Chain of MMP-3CD (catalytic domain of stromelysin) (P08254 100-272 limits assumed): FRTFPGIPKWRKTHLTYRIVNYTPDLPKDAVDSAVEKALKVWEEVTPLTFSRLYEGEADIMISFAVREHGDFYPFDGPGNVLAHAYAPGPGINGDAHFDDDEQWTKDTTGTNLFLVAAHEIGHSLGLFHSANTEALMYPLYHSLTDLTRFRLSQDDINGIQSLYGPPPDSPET
Chain of MMP-9FL (full length Gelatinase B) (P14780 94-707): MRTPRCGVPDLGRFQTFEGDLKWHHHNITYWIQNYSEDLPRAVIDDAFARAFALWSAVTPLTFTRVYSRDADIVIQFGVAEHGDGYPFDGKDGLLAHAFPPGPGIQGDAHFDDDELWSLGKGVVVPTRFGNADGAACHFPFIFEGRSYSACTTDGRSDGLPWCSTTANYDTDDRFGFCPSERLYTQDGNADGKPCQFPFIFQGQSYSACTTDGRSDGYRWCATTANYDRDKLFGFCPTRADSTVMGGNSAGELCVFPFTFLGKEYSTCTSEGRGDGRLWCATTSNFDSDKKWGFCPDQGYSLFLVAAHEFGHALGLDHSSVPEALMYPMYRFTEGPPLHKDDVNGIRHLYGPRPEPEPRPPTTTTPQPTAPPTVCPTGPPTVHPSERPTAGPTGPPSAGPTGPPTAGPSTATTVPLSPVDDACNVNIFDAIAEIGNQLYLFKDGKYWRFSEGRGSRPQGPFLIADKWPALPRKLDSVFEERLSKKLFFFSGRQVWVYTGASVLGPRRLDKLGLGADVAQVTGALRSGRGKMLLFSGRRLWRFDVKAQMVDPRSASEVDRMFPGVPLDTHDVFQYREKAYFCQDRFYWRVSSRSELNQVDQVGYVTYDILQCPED

Regarding `Cc1c(=O)n(Cc2ccc(S(C)(=O)=O)cc2)c(=O)n2cc(C(=O)NCc3ccncc3)sc12` [Example 7], the IC50 was greater than 100 µM in data set [1] (setting [9]); greater than 100 µM in data set [2] (setting [10]); 0.0235 µM in [3] (setting [11]); greater than 100 µM in [4] (setting [12]); greater than 100 µM in [5] (setting [13]); greater than 100 µM in data set [6] (setting [14]).
Regarding `O=C(NCCCCN1CCOCC1)c1cc2ccccc2o1` [compound of the formula I], the “activity against other MMP enzymes” value in the data set with other MMP enzymes was “inactive”. In addition, the “inhibition against MMP-13” value on MMP-13 (high throughput screening hit, Chen et al.) is “weak inhibition”.
Broadly, the melting point is the temperature, or range, at which the solid turns liquid. Compound `O=C(OCc1ccncc1)c1cc2c(=O)n(Cc3ccccc3)c(=O)[nH]c2s1` [Synthesis Example 18, 3-Benzyl-2,4-dioxo-1,2,3,4-tetrahydro-thieno[2,3-d]pyrimidine-6-carboxylic acid pyridin-4-ylmethyl ester] showed a melting point of 248 to 250 °C.
`COC(=O)c1ccc(Cn2c(=O)c3cc(C(=O)NCc4ccc(OC)cc4)ccc3n3cnnc23)cc1` [Synthesis Example 59, Methyl 4-{7-[(4-methoxybenzyl)-carbamoyl]-5-oxo-5H-[1,2,4]triazolo[4,3-a]quinazol-4-ylmethyl}benzoate] came in with a melting point of 210 °C. The compound further had an IC50 in data set [3] (IC50 μM, Table V, MMP-13) of 0.0026 µM.
Compound `O=C(O)c1ccc(Cn2c(=O)c3cc(C(=O)NCc4ccc5c(c4)OCO5)ccc3n3cnnc23)cc1` [Synthesis Example 61, 4-{7-[(1,3-Benzodioxol-5-ylmethyl)-carbamoyl]-5-oxo-5H-[1,2,4]triazolo[4,3-a]quinazol-4-ylmethyl}benzoic acid] had a melting point of 235 °C. The same compound had an IC50 in data set [3] (IC50 μM, Table V, MMP-13) of 0.0009 µM.
As to `Cc1c(=O)n(Cc2ccc(C(=O)O)cc2)c(=O)n2cc(C(=O)NCc3ccncc3)sc12` [Example 6], the IC50 in [1] (setting [9]) is greater than 100 µM; in [2] (setting [10]), greater than 100 µM; in data set [3] (setting [11]), 0.0057 µM; in data set [4] (setting [12]), greater than 100 µM; in data set [5] (setting [13]), greater than 100 µM; in data set [6] (setting [14]), greater than 100 µM.
In the case of `O=C(NCc1ccccc1)c1cn2c(=O)n(Cc3ccccc3)c(=O)cc2s1` [Example 2], the IC50 in data set [7] (setting [15]) was greater than 100 µM; in data set [1] (setting [9]), greater than 100 µM; in [2] (setting [10]), greater than 100 µM; in data set [3] (setting [11]) it was 0.51 µM; in data set [4] (setting [12]), 81 µM; in [5] (setting [13]) it was greater than 100 µM. Besides, in data set [6] (setting [14]), the IC50 was greater than 100 µM.
In the case of `O=C(NCc1ccc2c(c1)OCO2)c1ccc2[nH]c(=S)n(Cc3ccccc3)c(=O)c2c1` [3-Benzyl-4-oxo-2-thioxo-1,2,3,4-tetrahydroquinazoline-6-carboxylic acid (benzo[1,3]dioxol-5-ylmethyl)amide], the IC50 in [8] stood at 0.014 µM; in data set [3] (MMP13 IC50 μM, Table IVb), 0.014 µM.
For the compound `CN1C(=O)N(Cc2ccccc2)S(=O)(=O)c2cc(C(=O)NCc3ccccc3)ccc21` [compound 63], the IC50 is greater than 100 µM in [7] (setting [16]); greater than 30 µM in data set [1] (setting [17]); greater than 30 µM in [2] (Table VI, synthesis examples, read-out: MMP03); greater than 30 µM in data set [4] (setting [18]); greater than 30 µM in [5] (setting [19]); greater than 30 µM in [6] (setting [20]).
Turning to `Cc1cc(C)c(N(Cc2ccccc2)S(=O)(=O)c2ccc(OCCNC(=O)c3cc4ccccc4o3)cc2)c(C(=O)NO)c1` [WAY-170523], on MMP-13 (as reported by Chen et al.), the “selectivity for MMP-13” value was “selective inhibitor of MMP-13”.
Regarding `COc1ccc(CNC(=O)c2ccc3c(c2)S(=O)(=O)N(Cc2ccc([N+](=O)[O-])cc2)C(=O)N3C)cc1` [compound 65], the IC50 in data set [7] (setting [16]), in data set [1] (setting [17]), in [5] (setting [19]) and in [6] (setting [20]) was greater than 30 µM each time.
On to `O=C(OCc1ccccc1)c1cn2c(=O)n(Cc3ccccc3)c(=O)cc2s1` [Example 1], for which the IC50 in data set [1] (setting [9]), in data set [2] (read-out: MMP03 (CD) IC50), in data set [4] (setting [12]), in data set [5] (setting [13]) and in data set [6] (setting [14]) was greater than 100 µM each time.
On to `Cc1c(=O)n(Cc2ccccc2)c(=O)n2cc(C(=O)OCc3ccccc3)sc12` [Example 3], for which the IC50 is greater than 100 µM in data set [1] (setting [9]); greater than 30 µM in data set [2] (setting [10]); 0.0056 µM in data set [3] (setting [11]); greater than 100 µM in data set [4] (setting [12]); greater than 100 µM in data set [5] (setting [13]); greater than 100 µM in data set [6].
Consider `COc1ccc(CNC(=O)c2cn3c(=O)n(Cc4ccc(Cl)c(Cl)c4)c(=O)cc3s2)cc1` [Example 8], for which the IC50 is greater than 100 µM in [7] (setting [15]); greater than 100 µM in data set [1] (setting [9]); greater than 100 µM in data set [2] (setting [10]); 0.084 µM in data set [3] (setting [11]); greater than 100 µM in [4] (setting [12]); greater than 100 µM in data set [5] (setting [13]). For the same compound, the IC50 in [6] (setting [14]) is greater than 100 µM.
As to `COc1ccc(CNC(=O)c2cn3c(=O)n(Cc4ccc(C(=O)O)cc4)c(=O)c(C)c3s2)cc1` [Example 5], the IC50 in [7] (setting [15]) is greater than 100 µM; in data set [1] (setting [9]), greater than 100 µM; in data set [2] (setting [10]), 29 µM; in [3] (setting [11]), 0.0015 µM; in data set [4] (setting [12]) it was greater than 100 µM; in data set [5] (setting [13]), greater than 100 µM. Also, the IC50 in data set [6] (setting [14]) was greater than 100 µM.
Take `O=C(OCc1ccncc1)c1cn2c(=O)n(Cc3ccccc3)c(=O)cc2s1` [Example 4]: the IC50 in data set [1] (setting [9]) was no less than 100 µM; in [2] (setting [10]) it was no less than 30 µM; in [3] (setting [11]), 0.0054 µM; in [5] (setting [13]), no less than 100 µM; in data set [6] (setting [14]), no less than 100 µM.
Turning to `CN1C(=O)N(Cc2ccccc2)S(=O)(=O)c2cc(C(=O)OCc3ccccc3)ccc21` [compound 62], the IC50 in data set [7] (setting [16]), in data set [1] (setting [17]), in data set [4] (setting [18]) and in data set [6] (setting [20]) was greater than 100 µM in each case.
`COc1ccc(CNC(=O)c2cn3c(=O)n(Cc4ccc(C(=O)O)cc4)c(=O)c(C)c3s2)cc1` [Synthesis Example 5, 4-[2-(4-Methoxy-benzylcarbamoyl)-8-methyl-5,7-dioxo-7H-thiazolo[3,2-c]pyrimidin-6-ylmethyl]-benzoic acid]: the melting point was greater than 210 °C.
